The target of assay [1] is T1, Cathepsin K (Homo sapiens, UniProt P43235).
T1 construct: gene CTSK
T1 sequence (P43235 115-329): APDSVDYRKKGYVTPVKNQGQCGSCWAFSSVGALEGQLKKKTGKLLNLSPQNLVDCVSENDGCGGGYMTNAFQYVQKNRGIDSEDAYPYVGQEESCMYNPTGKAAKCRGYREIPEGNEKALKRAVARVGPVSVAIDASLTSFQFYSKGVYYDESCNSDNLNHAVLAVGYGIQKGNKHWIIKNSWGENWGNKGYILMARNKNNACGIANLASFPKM
Description: fluorescence enzyme assay with recombinant human Ctsk, LR-AFC substrate. Format: biochemical.

Assay [2] deals with T1, Cathepsin K. Description: fluorescence enzyme assay with recombinant human Ctsk, LR-AFC substrate (kit positive control). It counts as biochemical.

In article PMC5187916, “Discovery of a New Class of Cathepsin K Inhibitors in Rhizoma Drynariae as Potential Candidates for the Treatment of Osteoporosis” (International Journal of Molecular Sciences, 2016) one finds IC50 data, which are given here for three compounds.

A word on the IC50: it is the midpoint of a concentration-inhibition curve. For the compound `C=C(C)[C@H](CC=C(C)C)Cc1c(O)cc(O)c2c1O[C@H](c1ccc(O)cc1O)CC2=O` [SG, Sophoraflavanone G], the IC50 in assay [1] worked out at 27.2 µM. The same measure, in the same setting: the result for `C=C(C)C(CC=C(C)C)Cc1c(O)cc2c(c1O)C(=O)CC(c1ccc(O)cc1O)O2` (stereo not drawn) [KF, Kushennol F] reads 8.79 µM. Turning to FF-FMK, in assay [2], the IC50 was determined as 0.047 µM.
